# According to ChEMBL document CHEMBL5214990, “Novel Aryl Alkamidazole Derivatives as Multifunctional Antifungal Inhibitors: Design, Synthesis, and Biological Evaluation” (J Med Chem, 2022):
# The source made the active and inactive calls. The rule behind the calls is not given here.
# Legend:
# [1] = tested on: Candida albicans; assay: Antifungal activity against Candida albicans ATCC SC5314 assessed as inhibition of fungal growth measured after 72 hrs by CLSI based liquid medium dilution method; format: functional
# [2] = tested on: Cryptococcus neoformans; assay: Antifungal activity against Cryptococcus neoformans assessed as inhibition of fungal growth measured after 72 hrs by CLSI based liquid medium dilution method; format: functional
# [3] = tested on: Pichia kudriavzevii; assay: Antifungal activity against Candida krusei ATCC 6258 assessed as inhibition of fungal growth measured after 72 hrs by CLSI based liquid medium dilution method; format: functional
# [4] = tested on: Candida tropicalis; assay: Antifungal activity against Candida tropicalis ATCC 1369 assessed as inhibition of fungal growth measured after 72 hrs by CLSI based liquid medium dilution method; format: functional
# [5] = tested on: Aspergillus fumigatus; assay: Antifungal activity against Aspergillus fumigatus KM8001 assessed as inhibition of fungal growth measured after 72 hrs by CLSI based liquid medium dilution method; format: functional
# [6] = tested on: Candida albicans; assay: Antifungal activity against fluconazole-resistant Candida albicans 17# assessed as inhibition of fungal growth measured after 72 hrs by CLSI based liquid medium dilution method; format: functional
# [7] = tested on: Candida albicans; assay: Antifungal activity against fluconazole-resistant Candida albicans CaR assessed as inhibition of fungal growth measured after 72 hrs by CLSI based liquid medium dilution method; format: functional
# [8] = tested on: Candida albicans; assay: Antifungal activity against fluconazole-resistant Candida albicans 632 assessed as inhibition of fungal growth measured after 72 hrs by CLSI based liquid medium dilution method; format: functional
# [9] = tested on: Candida albicans; assay: Antifungal activity against fluconazole-resistant Candida albicans 901 assessed as inhibition of fungal growth measured after 72 hrs by CLSI based liquid medium dilution method; format: functional
# [10] = tested on: Candida albicans; assay: Antifungal activity against fluconazole-resistant Candida albicans 904 assessed as inhibition of fungal growth measured after 72 hrs by CLSI based liquid medium dilution method; format: functional
# [11] = target: T1, Lanosterol 14-alpha demethylase (Candida albicans (strain SC5314 / ATCC MYA-2876) (Yeast), UniProt P10613); assay: Inhibition of CYP51 in Candida albicans ATCC SC5314 assessed as reduction in substrate consumption using lanosterol as substrate preincubated for 30 mins followed by substrate addition and measured after 60 mins by HPLC analysis
# T1 sequence (P10613 whole entry): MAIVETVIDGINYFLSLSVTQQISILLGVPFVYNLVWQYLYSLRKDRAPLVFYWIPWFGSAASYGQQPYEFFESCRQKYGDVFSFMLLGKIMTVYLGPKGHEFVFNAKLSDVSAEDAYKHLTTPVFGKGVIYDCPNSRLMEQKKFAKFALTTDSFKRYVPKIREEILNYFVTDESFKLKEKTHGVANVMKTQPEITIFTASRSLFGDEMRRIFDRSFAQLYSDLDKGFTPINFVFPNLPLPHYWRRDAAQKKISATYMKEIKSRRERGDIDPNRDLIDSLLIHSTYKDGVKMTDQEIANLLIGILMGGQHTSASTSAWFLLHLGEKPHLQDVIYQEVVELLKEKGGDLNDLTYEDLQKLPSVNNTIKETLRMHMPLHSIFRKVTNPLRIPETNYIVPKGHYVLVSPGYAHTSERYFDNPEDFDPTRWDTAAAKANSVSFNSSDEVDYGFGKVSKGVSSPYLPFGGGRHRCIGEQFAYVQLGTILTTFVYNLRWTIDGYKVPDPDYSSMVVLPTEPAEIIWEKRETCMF
# [12] = target: T2, Prostaglandin G/H synthase 2 (Homo sapiens, UniProt P35354); assay: Inhibition of COX2 (unknown origin) assessed as reduction in PGF2alpha content using arachidonic acid as substrate preincubated for 10 mins followed by substrate addition and measured after 2 mins by enzyme immunoassay
# T2 sequence (P35354 whole entry): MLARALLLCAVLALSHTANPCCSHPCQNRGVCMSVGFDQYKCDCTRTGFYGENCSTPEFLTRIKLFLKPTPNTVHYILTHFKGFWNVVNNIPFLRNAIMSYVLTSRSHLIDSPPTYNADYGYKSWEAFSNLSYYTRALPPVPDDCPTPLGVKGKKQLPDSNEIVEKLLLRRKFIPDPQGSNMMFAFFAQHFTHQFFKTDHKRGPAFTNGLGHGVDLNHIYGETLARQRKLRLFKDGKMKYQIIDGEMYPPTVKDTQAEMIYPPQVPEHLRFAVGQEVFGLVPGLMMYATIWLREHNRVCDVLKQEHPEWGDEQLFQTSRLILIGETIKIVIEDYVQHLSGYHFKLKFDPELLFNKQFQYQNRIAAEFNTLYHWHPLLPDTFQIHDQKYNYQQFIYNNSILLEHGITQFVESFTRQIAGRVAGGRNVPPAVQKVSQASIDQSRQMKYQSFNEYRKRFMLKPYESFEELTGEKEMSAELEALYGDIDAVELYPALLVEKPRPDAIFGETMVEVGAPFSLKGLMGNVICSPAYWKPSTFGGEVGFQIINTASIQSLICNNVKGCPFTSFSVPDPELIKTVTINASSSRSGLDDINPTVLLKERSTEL
# [13] = Drug uptake in Candida albicans ATCC SC5314 assessed as increase in red and green fluorescence intensity measured after 10 hrs by PI/Hoechst […] staining based fluorescence microscopy; format: ADME
# [14] = tested on: Candida albicans; assay: Antifungal activity against Candida albicans assessed as inhibition of fungal cell proliferation by measuring decrease in fungal cell density measured after 24 hrs; format: functional, organism-based
# [15] = Increase in intracellular ROS level in Candida albicans assessed as fold increase in fluorescence intensity measured after 12 hrs by fluorescence microscopic analysis relative to control; format: functional
# [16] = Increase in intracellular ROS level in Cryptococcus neoformans assessed as fold increase in fluorescence intensity measured after 12 hrs by fluorescence microscopic analysis relative to control; format: functional
# [17] = tested on: Candida albicans; assay: Induction of mitochondrial membrane depolarization in Candida albicans assessed as fungal cells with depolarized mitochondria measured after 24 hrs by JC-1 staining based flow cytometry (reference value: 3.22%); format: functional
# [18] = tested on: Candida albicans; assay: Induction of mitochondrial membrane depolarization in Candida albicans assessed as fungal cells with intact mitochondria measured after 24 hrs by JC-1 staining based flow cytometry (reference value: 95.9%); format: functional
# [19] = tested on: Candida albicans; assay: Induction of apoptosis in Candida albicans assessed as viable cells measured after 24 hrs by Annexin V-FITC/PI staining based flow cytometry (reference value: 95.7%); format: functional
# [20] = tested on: Candida albicans; assay: Induction of apoptosis in Candida albicans assessed as early apoptotic cells measured after 24 hrs by Annexin V-FITC/PI staining based flow cytometry (reference value: 0.46%); format: functional
# [21] = tested on: Candida albicans; assay: Induction of apoptosis in Candida albicans assessed as late apoptotic cells measured after 24 hrs by Annexin V-FITC/PI staining based flow cytometry (reference value: 0.44%); format: functional
# [22] = tested on: Candida albicans; assay: Induction of apoptosis in Candida albicans assessed as necrotic cells measured after 24 hrs by Annexin V-FITC/PI staining based flow cytometry (reference value: 3.37%); format: functional
# [23] = target: T1, Lanosterol 14-alpha demethylase; assay: Inhibition of CYP51 in Candida albicans ATCC SC5314 assessed as ergosterol content at 4 ug/ml measured after 48 hrs by GC-MS analysis (reference value: 95.61%); set-up: scale not given: the % may be the effect or the level left; conditions: at 4 µg/mL
# [24] = target: T1, Lanosterol 14-alpha demethylase; assay: Inhibition of CYP51 in Candida albicans ATCC SC5314 assessed as lanosterol content at 4 ug/ml measured after 48 hrs by GC-MS analysis; set-up: scale not given: the % may be the effect or the level left; conditions: at 4 µg/mL
# [25] = target: T1, Lanosterol 14-alpha demethylase; assay: Inhibition of CYP51 in Candida albicans ATCC SC5314 assessed as eburicol content at 4 ug/ml measured after 48 hrs by GC-MS analysis (reference value: 1.84%); set-up: scale not given: the % may be the effect or the level left; conditions: at 4 µg/mL
# [26] = target: T1, Lanosterol 14-alpha demethylase; assay: Inhibition of CYP51 in Candida albicans ATCC SC5314 assessed as unknown sterol content at 4 ug/ml measured after 48 hrs by GC-MS analysis; set-up: scale not given: the % may be the effect or the level left; conditions: at 4 µg/mL
structure (smiles),measurement,setting,value
C[C@H](C(=O)OC(Cn1ccnc1)c1ccc(F)cc1)c1ccc(-c2ccccc2)c(F)c1 (stereo partly specified),MIC50,[1],0.25 µg/mL
same,MIC50,[2],0.5 µg/mL
same,MIC50,[3],0.125 µg/mL
same,MIC50,[4],0.25 µg/mL
same,MIC50,[5],2 µg/mL
same,MIC50,[6],4 µg/mL
same,MIC50,[7],2 µg/mL
same,MIC50,[8],4 µg/mL
same,MIC50,[9],2 µg/mL
same,MIC50,[10],2 µg/mL
same,IC50,[11],350 nM
same,IC50,[12],3.76 µM
same,Drug uptake,[13],Active
same,Activity,[14],Active
same,fold change (FC),[15],4
same,fold change (FC),[16],4
same,Activity,[17],52.9%
same,Activity,[18],46.6%
same,Activity,[19],66.2%
same,Activity,[20],0.086%
same,Activity,[21],1.06%
same,Activity,[22],32.7%
same,Activity,[23],21.84%
same,Activity,[24],33.52%
same,Activity,[25],39.58%
same,Activity,[26],5.06%
CC(=O)N1CCN(c2ccc(OCC3COC(Cn4ccnc4)(c4ccc(Cl)cc4Cl)O3)cc2)CC1 (stereo unspecified) [KETOCONAZOLE],MIC50,[1],1 µg/mL
same,MIC50,[2],1 µg/mL
same,MIC50,[3],0.5 µg/mL
same,MIC50,[4],0.5 µg/mL
same,MIC50,[5],> 8 µg/mL
same,MIC50,[6],4 µg/mL
same,MIC50,[7],4 µg/mL
same,MIC50,[8],> 8 µg/mL
same,MIC50,[9],4 µg/mL
same,MIC50,[10],> 8 µg/mL
COc1ccc2cc([C@H](C)C(=O)N(C)CC(O)(Cn3ccnc3)c3ccc(Cl)cc3Cl)ccc2c1 (stereo partly specified),MIC50,[1],0.5 µg/mL
same,MIC50,[2],0.5 µg/mL
same,MIC50,[3],2 µg/mL
same,MIC50,[4],0.25 µg/mL
same,MIC50,[5],4 µg/mL
COc1ccc2cc([C@H](C)C(=O)OC(Cn3cnnn3)c3ccc(F)cc3)ccc2c1 (stereo partly specified),MIC50,[1],1 µg/mL
same,MIC50,[2],1 µg/mL
same,MIC50,[3],0.5 µg/mL
same,MIC50,[4],2 µg/mL
same,MIC50,[5],> 8 µg/mL
C[C@H](C(=O)N[C@H](Cn1cncn1)c1ccccc1)c1ccc(CC2CCCC2=O)cc1 (stereo partly specified),MIC50,[1],1 µg/mL
same,MIC50,[2],2 µg/mL
same,MIC50,[3],0.5 µg/mL
same,MIC50,[4],2 µg/mL
same,MIC50,[5],> 8 µg/mL
C[C@H](C(=O)N[C@H](Cn1ccnc1)c1ccccc1)c1ccc(CC2CCCC2=O)cc1 (stereo partly specified),MIC50,[1],2 µg/mL
same,MIC50,[2],1 µg/mL
same,MIC50,[3],0.5 µg/mL
same,MIC50,[4],0.5 µg/mL
same,MIC50,[5],4 µg/mL
C[C@H](C(=O)OC(Cn1ccnc1)c1ccc(F)cc1)c1ccc(CC2CCCC2=O)cc1 (stereo partly specified),MIC50,[1],2 µg/mL
same,MIC50,[2],2 µg/mL
same,MIC50,[3],1 µg/mL
same,MIC50,[4],2 µg/mL
same,MIC50,[5],> 8 µg/mL
C[C@H](C(=O)N[C@H](Cn1ccnc1)c1ccccc1)c1cccc(C(=O)c2ccccc2)c1,MIC50,[1],1 µg/mL
same,MIC50,[2],0.5 µg/mL
same,MIC50,[3],1 µg/mL
same,MIC50,[4],2 µg/mL
same,MIC50,[5],> 8 µg/mL
C[C@H](C(=O)N[C@H](Cn1cncn1)c1ccccc1)c1ccc(-c2ccccc2)c(F)c1,MIC50,[1],0.5 µg/mL
same,MIC50,[2],0.5 µg/mL
same,MIC50,[3],0.5 µg/mL
same,MIC50,[4],0.25 µg/mL
same,MIC50,[5],4 µg/mL
